According to ChEMBL document CHEMBL1147253, “New polyoxygenated farnesylcyclohexenones, deacetoxyyanuthone A and its hydro derivative from the marine-derived fungus Penicillium sp” (2003):
In brackets after ≈: the same amount, converted by molar mass.

Assays:
Assay type in all cases: functional
Settings in all cases: read-out: ED50 (the source's name)
[1] = tested on: A549; assay: Cytotoxicity against human A549 cells
[2] = tested on: SK-MEL-2; assay: Cytotoxicity against human SK-MEL-2 cells
[3] = tested on: XF498; assay: Cytotoxicity against human XF498 cells
[4] = tested on: HCT-15; assay: Cytotoxicity against human HCT15 cells
[5] = tested on: SK-OV-3; assay: Cytotoxicity against human SKOV3 cells

| SMILES | EC50 [1] [µg/mL] | EC50 [2] [µg/mL] | EC50 [3] [µg/mL] | EC50 [4] [µg/mL] | EC50 [5] [µg/mL] |
| --- | --- | --- | --- | --- | --- |
| CC(C)=CCC/C(C)=C/CC/C(C)=C/C[C@@]12O[C@@H]1[C@H](O)C(C)=CC2=O | 7.74 (≈ 22.5 µM) | 3.86 (≈ 11.2 µM) | 10 (≈ 29.1 µM) | 10.1 (≈ 29.2 µM) | 6.35 (≈ 18.4 µM) |
| CC(C)=CCC/C(C)=C\CC/C(C)=C\Cc1cc(O)c(C)cc1O | 4.73 (≈ 14.4 µM) | 4.8 (≈ 14.6 µM) | 5.94 (≈ 18.1 µM) | 6.11 (≈ 18.6 µM) | 5.31 (≈ 16.2 µM) |
| CC(C)=CCC/C(C)=C\CC/C(C)=C\CC1=CC(=O)C(C)=CC1=O | 25.4 (≈ 77.9 µM) | 18.4 (≈ 56.4 µM) | 38.1 (≈ 117 µM) | 42.6 (≈ 130 µM) | 37.3 (≈ 114 µM) |
| COc1cccc2c1C(=O)c1c(O)c3c(c(O)c1C2=O)C[C@@](O)(C(=O)CO)C[C@@H]3O[C@H]1C[C@H](N)[C@H](O)[C@H](C)O1 [DOXORUBICIN] | 0.02 (≈ 0.0368 µM) | 0.04 (≈ 0.0736 µM) | 0.02 (≈ 0.0368 µM) | 0.79 (≈ 1.45 µM) | 0.09 (≈ 0.166 µM) |
